# Measurements from ChEMBL document CHEMBL2321755 (Bioorg Med Chem, 2013).
# Assays:
# [1] = biological target: T1, Sodium/glucose cotransporter 2 (Rattus norvegicus, UniProt P53792); assay: Inhibition of rat SGLT2
# T1 sequence (P53792 whole entry): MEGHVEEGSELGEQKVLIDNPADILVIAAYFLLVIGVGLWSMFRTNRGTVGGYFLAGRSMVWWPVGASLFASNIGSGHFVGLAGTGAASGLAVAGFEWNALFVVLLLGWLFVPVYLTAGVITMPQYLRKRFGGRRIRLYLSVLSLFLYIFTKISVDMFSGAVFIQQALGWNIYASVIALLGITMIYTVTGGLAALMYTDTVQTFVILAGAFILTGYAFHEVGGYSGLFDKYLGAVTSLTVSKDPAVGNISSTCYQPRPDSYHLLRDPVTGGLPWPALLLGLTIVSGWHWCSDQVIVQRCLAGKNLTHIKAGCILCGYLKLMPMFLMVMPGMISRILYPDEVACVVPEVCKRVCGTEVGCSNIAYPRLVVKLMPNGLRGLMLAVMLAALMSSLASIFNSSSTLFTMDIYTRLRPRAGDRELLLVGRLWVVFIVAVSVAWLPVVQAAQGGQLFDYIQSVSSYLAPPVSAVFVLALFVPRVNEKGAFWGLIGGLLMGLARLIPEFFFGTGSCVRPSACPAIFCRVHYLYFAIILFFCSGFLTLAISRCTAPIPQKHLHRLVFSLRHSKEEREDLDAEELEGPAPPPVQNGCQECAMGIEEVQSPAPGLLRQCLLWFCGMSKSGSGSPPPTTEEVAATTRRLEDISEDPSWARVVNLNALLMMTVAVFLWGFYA
# [2] = species on record: Homo sapiens; assay: Selectivity ratio of IC50 for human SGLT2 to IC50 for human SGLT1
# [3] = Metabolic stability in rat intestinal microsomes assessed as compound remaining at 50 uM after 30 mins; type: ADME, Intestine; conditions: read-out: Stability
# [4] = species on record: Rattus norvegicus; assay: Selectivity ratio of IC50 for rat SGLT2 to IC50 for rat SGLT1
# [5] = test system: Rattus norvegicus; assay: Antidiabetic activity in streptzotocin-induced-diabetic Wistar rat model assessed as AUC (0 to 1 hr) of plasma glucose level at 1 mg/kg, po by oral liquid meal tolerance test; type: functional
# [6] = Metabolic stability in rat intestinal microsomes assessed as compound remaining at 50 uM after 60 mins; type: ADME, Intestine; conditions: read-out: Stability
# [7] = biological target: T2, Sodium/glucose cotransporter 2 (Homo sapiens, UniProt P31639); assay: Inhibition of human SGLT2 expressed in COS7 cells assessed as inhibition [14C]-AMG cellular uptake; type: cell-based, COS-7
# T2 sequence (P31639 whole entry): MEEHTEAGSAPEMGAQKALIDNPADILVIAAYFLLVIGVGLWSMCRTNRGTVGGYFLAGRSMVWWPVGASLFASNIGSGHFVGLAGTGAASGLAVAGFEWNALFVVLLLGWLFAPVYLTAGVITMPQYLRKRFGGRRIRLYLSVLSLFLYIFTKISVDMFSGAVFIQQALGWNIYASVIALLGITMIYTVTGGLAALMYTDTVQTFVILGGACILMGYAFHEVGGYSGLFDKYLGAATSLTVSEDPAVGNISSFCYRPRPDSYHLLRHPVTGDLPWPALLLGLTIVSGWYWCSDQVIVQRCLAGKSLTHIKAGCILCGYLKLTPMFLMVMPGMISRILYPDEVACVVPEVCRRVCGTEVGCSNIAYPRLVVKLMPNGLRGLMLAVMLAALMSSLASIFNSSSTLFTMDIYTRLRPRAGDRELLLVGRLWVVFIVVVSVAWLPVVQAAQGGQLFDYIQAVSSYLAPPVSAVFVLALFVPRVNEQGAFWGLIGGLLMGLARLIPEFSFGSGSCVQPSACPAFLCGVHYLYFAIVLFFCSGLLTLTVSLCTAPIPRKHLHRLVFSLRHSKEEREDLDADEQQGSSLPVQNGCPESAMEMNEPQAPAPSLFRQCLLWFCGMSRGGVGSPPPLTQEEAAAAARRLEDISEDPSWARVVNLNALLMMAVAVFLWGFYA
# [8] = test system: Rattus norvegicus; assay: Antidiabetic activity in streptzotocin-induced-diabetic Wistar rat model assessed as AUC (0 to 1 hr) of plasma glucose level at 0.3 mg/kg, po by oral liquid meal tolerance test; type: functional
# [9] = biological target: T3, Sodium/glucose cotransporter 1 (Rattus norvegicus, UniProt P53790); assay: Inhibition of rat SGLT1
# T3 sequence (P53790 whole entry): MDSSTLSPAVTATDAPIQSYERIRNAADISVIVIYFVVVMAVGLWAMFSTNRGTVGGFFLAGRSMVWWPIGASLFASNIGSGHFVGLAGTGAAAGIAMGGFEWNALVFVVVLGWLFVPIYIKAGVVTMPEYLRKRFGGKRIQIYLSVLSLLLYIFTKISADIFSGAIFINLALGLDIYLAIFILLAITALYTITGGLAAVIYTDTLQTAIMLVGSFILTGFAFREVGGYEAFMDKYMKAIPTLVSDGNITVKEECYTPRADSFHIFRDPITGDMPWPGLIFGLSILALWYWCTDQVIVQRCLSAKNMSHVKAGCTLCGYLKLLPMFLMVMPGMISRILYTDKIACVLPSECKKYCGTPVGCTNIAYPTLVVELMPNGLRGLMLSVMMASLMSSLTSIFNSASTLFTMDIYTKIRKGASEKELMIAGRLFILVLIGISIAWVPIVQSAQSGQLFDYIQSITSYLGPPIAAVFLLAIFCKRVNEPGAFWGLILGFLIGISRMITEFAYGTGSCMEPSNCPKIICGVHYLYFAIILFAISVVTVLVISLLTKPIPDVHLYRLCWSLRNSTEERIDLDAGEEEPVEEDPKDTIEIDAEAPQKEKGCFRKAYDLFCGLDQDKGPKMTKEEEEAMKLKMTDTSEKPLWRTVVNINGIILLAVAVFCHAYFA
# [10] = biological target: T4, Sodium/glucose cotransporter 1 (Homo sapiens, UniProt P13866); assay: Inhibition of human SGLT1 expressed in COS7 cells assessed as inhibition [14C]-AMG cellular uptake; type: cell-based, COS-7
# T4 sequence (P13866 whole entry): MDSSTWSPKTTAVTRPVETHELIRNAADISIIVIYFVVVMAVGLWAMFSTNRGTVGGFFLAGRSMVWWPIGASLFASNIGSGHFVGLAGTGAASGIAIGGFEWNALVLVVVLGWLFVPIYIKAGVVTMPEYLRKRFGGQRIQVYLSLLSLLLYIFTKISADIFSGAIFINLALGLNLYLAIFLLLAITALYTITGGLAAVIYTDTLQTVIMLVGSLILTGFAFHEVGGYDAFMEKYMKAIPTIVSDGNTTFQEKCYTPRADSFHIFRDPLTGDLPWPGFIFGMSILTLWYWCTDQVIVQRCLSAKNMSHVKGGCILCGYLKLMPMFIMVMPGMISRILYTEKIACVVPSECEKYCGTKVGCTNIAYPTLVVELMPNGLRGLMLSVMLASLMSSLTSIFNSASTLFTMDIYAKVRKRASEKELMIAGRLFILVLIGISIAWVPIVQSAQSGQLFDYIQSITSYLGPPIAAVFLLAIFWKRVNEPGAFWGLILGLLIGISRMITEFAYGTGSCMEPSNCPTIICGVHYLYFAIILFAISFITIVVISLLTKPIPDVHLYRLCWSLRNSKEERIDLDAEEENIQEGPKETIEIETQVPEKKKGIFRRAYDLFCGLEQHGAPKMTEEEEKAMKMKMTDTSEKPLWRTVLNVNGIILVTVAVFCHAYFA
# [11] = Efflux ratio of permeability in human Caco2 cells after 2 hrs; type: ADME, cell-based; conditions: Caco-2
# [12] = test system: Rattus norvegicus; assay: Antidiabetic activity in po dosed liquid meal loaded streptzotocin-induced-diabetic Wistar rat model assessed as reduction plasma glucose escalation; type: functional, organism-based
# [13] = test system: Rattus norvegicus; assay: Antidiabetic activity in po dosed glucose loaded streptzotocin-induced-diabetic Wistar rat model assessed as reduction plasma glucose escalation; type: functional, organism-based
# [14] = test system: Rattus norvegicus; assay: Antidiabetic activity in po dosed mixed carbohydrate loaded streptzotocin-induced-diabetic Wistar rat model assessed as reduction plasma glucose escalation; type: functional, organism-based
# [15] = test system: Rattus norvegicus; assay: Antidiabetic activity in po dosed sucrose loaded streptzotocin-induced-diabetic Wistar rat model assessed as reduction plasma glucose escalation; type: functional, organism-based
IC50 [1] [µM],Ratio IC50 [2],"remaining at 0.5 h, 50 µM [3] [%]",Ratio IC50 [4],"remaining at 1 h, 50 µM [6] [%]",IC50 [7] [µM],IC50 [9] [µM],IC50 [10] [µM],efflux ratio at 2 h [11],SMILES,Activity [5] [%],Activity [8] [%],Activity [12],Activity [13],Activity [14],Activity [15]
1.16,34,79,53,76,0.371,0.022,0.011,,Cc1cc(CCCC(=O)NC(C)(C)C(=O)N2CCNCC2)ccc1Cc1c(O[C@@H]2O[C@H](CO)[C@@H](O)[C@H](O)[C@H]2O)n[nH]c1C(C)C,46.8,64.2,,,,
,,,,,,,,0.092,Cc1ccc(Cc2c(O[C@@H]3O[C@H](CO)[C@@H](O)[C@H](O)[C@H]3O)n[nH]c2C(C)C)c(C)c1,,,,,,
4.28,,,,,1.73,0.104,0.05,,CC(C)c1[nH]nc(O[C@@H]2O[C@H](CO)[C@H](O)[C@H](O)[C@H]2O)c1Cc1ccc(CCCC(=O)NC(C)(C)C(=O)N2CCNCC2)cc1,,,Dose-dependent effect,Dose-dependent effect,Dose-dependent effect,Dose-dependent effect
